Entries after “also recorded” stand apart in the source; their conditions may differ.
Key:
iNOS gene [1] = assay: iNOS expression in LPS-treated primary peritoneal macrophages by real-time PCR, LXR ligands; type: cell-based, mouse; conditions: for repression of iNOS activation: oxysterols 5 μM, LPS, 6 h, less potently than GW3965 1 μM where active (FIG. 14 upper)
Protocol: Thioglycollate-elicited macrophages were isolated by peritoneal lavage 3 days following peritoneal injection of 2.5 ml 3% thioglycollate (DIFCO). Cells were plated in RPMI medium 1640 and 10% fetal bovine serum. After 5 h the medium was removed and cells were fed with fresh medium. For RNAi experiments, smart-pool siRNAs (Dharmacon) against NCoR and Ubc9 were transfected into primary macrophages using lipofectamine 2000 (Invitrogen), incubated for 48 h and validated by Q-PCR and Western Blotting. LPS (Sigma) was used at a concentration of 1 μg/ml and GW3965 (obtained under MTA from GlaxoSmithKline) was used at a concentration of 1 μM.
Total RNA (isolated by RNeasy kit, Qiagen) was prepared from primary macrophages pretreated with 1 μM GW3965 (2 h) before 1 μg/ml LPS stimulation (6 h). One microgram of total RNA was used for CDNA synthesis, and 1 μl of cDNA was used for real time PCR using iNOS or inflammatory-gene-specific primers.
(§1) Macrophages were transfected with siRNA for 48 h and then stimulated with LPS ([…]) for 6 h in the absence or presence of LXR ligand (GW3965, 1 μM). iNOS expression in peritoneal macrophages was evaluated by real-time quantitative PCR and iNOS promoter activation in RAW264.7 was evaluated by luciferase assay. […] Primary macrophages were treated with LPS ([…]) with or without the LXR ligand (GW3965, 1 μM) for 1 h.
(§2) Primary mouse peritoneal macrophages were treated in the upper panel with LPS and the indicated ligands and harvested for real time PCR analysis of iNOS expression 6 h later. In the lower panel, cells were treated with the indicated ligands for 18 hours and harvest for real time PCR analysis of ABCA1 expression. GW3965 was used at a concentration of 1 μM. The oxysterols were used at a concentration of 5 μM.

ABCA1 gene = assay: ABCA1 expression in primary macrophages by real-time PCR; type: cell-based, mouse; conditions: oxysterols 5 μM, 18 hours; less potently than GW3965 1 μM for the first three (FIG. 14 lower)
Protocol: as §2

iNOS promoter [2] = assay: Chromatin immunoprecipitation on the iNOS promoter in primary macrophages or RAW 264.7 cells; type: cell-based, mouse; conditions: primary macrophages, ligand 1 h then LPS 1 h (FIG. 1e)
Protocol: 2-4×10^6 primary macrophages or RAW 264.7 cells were used per experimental point. Cells were pre-treated with 1 μM Ro (1 h) and stimulated with 1 μg/ml LPS (1 h). Cross-linking was carried out for 10 min with 1% formaldehyde and cells lysed with 1% SDS, 10 mM EDTA, 50 mM Tris-HCl pH 8.1 and sonicated 10 sec-5 times. Five μg antibody conjugated to sheep anti-rabbit dyna-beads (Dyna1) were used for immunoprecipitations. For PPARγ, 2 μg of H-100 plus 3 μg of PPARγ antibody from Geneka were used in combination. Alternatively, anti-HA protein A sepharose beads (Covance) were used for wild-type and mutant HA-tagged PPARγ proteins. HDAC3 and p65 antibodies were from SantaCruz. NCoR antibody was from Affinity Bioreagents, Inc. Beads were washed twice with wash buffer: 150 mM NaCl, 0.1% SDS, 1% Triton X-100, 2 mM EDTA, 20 mM Tris-HCl and subsequently with buffer: 0.25 M LiCl, 1% NP-40, 1% deoxycholate, 1 mM EDTA, 10 mM Tris-HCl. Beads were eluted in 300 μl of TE with 1% SDS and 0.1 M NaCO3. Elute samples and 10% inputs were reversed at 65° C. for a minimum of 6 h. […]
In FIG. 1e, primary macrophages were pretreated with Ro or GW0072 for 1 h followed by 1 h LPS induction and formaldehyde crosslinking. A 150 base pair region of the iNOS promoter spanning the most proximal NF-κB site to the start of transcription was analyzed by ChIP assays using the indicated antibodies.

PPARγ = target: T1, PPARγ (Homo sapiens, UniProt P37231); conditions: cited from earlier work
T1 sequence (P37231 1-505): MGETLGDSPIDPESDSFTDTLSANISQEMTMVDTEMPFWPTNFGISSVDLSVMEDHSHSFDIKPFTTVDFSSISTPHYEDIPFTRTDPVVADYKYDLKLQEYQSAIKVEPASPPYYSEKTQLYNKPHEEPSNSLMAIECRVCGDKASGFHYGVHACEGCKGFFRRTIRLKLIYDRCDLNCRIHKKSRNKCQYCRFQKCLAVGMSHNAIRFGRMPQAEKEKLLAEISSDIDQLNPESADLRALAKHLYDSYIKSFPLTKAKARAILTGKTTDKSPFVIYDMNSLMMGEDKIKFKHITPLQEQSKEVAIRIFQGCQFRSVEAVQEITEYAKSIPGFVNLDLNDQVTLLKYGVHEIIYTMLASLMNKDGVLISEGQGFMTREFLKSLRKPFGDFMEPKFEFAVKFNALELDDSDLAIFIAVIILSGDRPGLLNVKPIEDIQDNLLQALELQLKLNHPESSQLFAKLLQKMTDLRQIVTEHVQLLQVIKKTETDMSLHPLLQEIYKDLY

iNOS promoter [3] = assay: iNOS-luciferase reporter in RAW264.7 cells transfected with LXRα; type: cell-based, mouse; conditions: RAW264.7, LXRα
Protocol: The RAW264.7 mouse macrophage cell line was transiently transfected with iNOS or ABCA1 promoters directing luciferase expression, pCMXhLYRα, FLAGhLXRβ, and their mutants. For transrepression experiments, wildtype LXRα and LXRβ or LXR mutants were transfected at a 3:1 (LXR to reporter plasmid) ratio using Superfect reagent (Qiagen). For siRNA experiments, RAW264.7 cells were transfected with siRNAs (40 nM) using Superfect reagent for 48 h before activation with LXR ligands and LPS induction. […]
Macrophages were transfected with siRNA for 48 h and then stimulated with LPS ([…]) for 6 h in the absence or presence of LXR ligand (GW3965, 1 μM). iNOS expression in peritoneal macrophages was evaluated by real-time quantitative PCR and iNOS promoter activation in RAW264.7 was evaluated by luciferase assay. […]

iNOS promoter [4] = assay: ChIP for LXR and NCoR on the iNOS promoter in primary macrophages, LXR ligand; type: cell-based, mouse
Protocol: For each experimental condition, 20×10^6 primary macrophages were used. Cells were pre-treated with 1 μM GW3965 (1 h) and stimulated with 1 μg/ml LPS (1 h) before crosslinking for 10 min with 1% formaldehyde. Crosslinked adducts were resuspended and sonicated resulting in DNA fragments of 300-900 bp. Anti-LXR (Calbiochem) or anti-NCoR (Affinity Bioreagents) antibodies were used. Protein-bound, immunoprecipitated DNA was reverse cross-linked at 65° C. overnight and then purified using PCR purification Kit (Qiagen). A 150-bp region of the iNOS promoter was amplified by real time PCR spanning the most proximal NF-κB site to the start of transcription.
as §1

[5] = system: Ccl3, Ccl7, Cxcl10 and Tgtp; assay: Microarray analysis of primary macrophages treated with LPS with or without PPARγ agonist; type: cell-based, mouse; conditions: LPS (FIG. 2e)
Protocol: In FIG. 2a, CHIP analysis of NCoR and Ubc5 occupancy on the iNOS promoter was performed in primary macrophages stimulated with LPS for the indicated times in the presence or absence of Ro. In FIG. 2b, Semi-quantitative RT-PCR analysis of iNOS and GAPDH mRNA in primary macrophages. Cells were treated with Ro 1 h before (pre) or 1 h following (post) stimulation with LPS. RNA was isolated for analysis 6 h after LPS treatment. In FIG. 2c, ChIP analysis for p65 and PPARγ on iNOS and CD36 promoters in primary macrophages was performed as described in FIG. 2a. In FIG. 2d, ChIP analysis of the iNOS promoter for NCoR and PPARγ was carried out in primary macrophages 1 h following LPS stimulation. Ro was given 1 h before (pre) or 1 h after (post) stimulation. Cells were transfected with control or NCoR-specific siRNAs 48 h prior to LPS stimulation. In FIG. 2e, Expression data derived from microarray analysis of primary macrophages treated with LPS in the presence or absence of the PPARγ-specific agonist GW7845. In FIG. 2f, ChIP analysis for NCoR and PPARγ on the indicated promoters was carried out using primary macrophages as in 2d.

iNOS gene [6] = assay: iNOS mRNA in LPS-stimulated primary macrophages (Northern blot / semi-quantitative RT-PCR), PPARγ ligands; type: cell-based, mouse; conditions: as little as 10 nM Trichostatin A 1 h, then 1 μM Ro 2 h, LPS 6 h (FIG. 1c)
Protocol: Primary macrophages were elicited by intra-peritoneal injection with 2 ml of thioglycollate. […] For RNAi experiments, smart-pool siRNAs (Dharmacon) against PIAS1, Ubc9, HDAC3, HDAC7 or control non-specific and previously validated NCoR were transected using lipofectamine 2000 (Invitrogen) into primary macrophages and incubated for 48 h.
Total RNA (Trizol method) was prepared from thioglycollate-elicited primary macrophages pre-treated with 1 μM Ro (2 h) prior to 1 μg/ml LPS stimulation (6 h). One μg of total RNA was used for cDNA synthesis using the First-strand synthesis RT system (Invitrogen). Two μl of cDNA was used for PCR using iNOS or inflammatory gene specific primers amplifying a 0.7 kb region of cDNA. GAPDH cDNA samples were carried out for 22 to 25 cycles. […]
Total RNA was analyzed for iNOS and GAPDH mRNA by Northern Blotting. […] Cells were stimulated with LPS for 6 h and total RNA was analyzed as in FIG. 1a. […] A 150 base pair region of the iNOS promoter spanning the most proximal NF-κB site to the start of transcription was analyzed by ChIP assays using the indicated antibodies. […]
In FIG. 2a, CHIP analysis of NCoR and Ubc5 occupancy on the iNOS promoter was performed in primary macrophages stimulated with LPS for the indicated times in the presence or absence of Ro. In FIG. 2b, Semi-quantitative RT-PCR analysis of iNOS and GAPDH mRNA in primary macrophages. […]

In the case of `CC(C)CC[C@@H](O)[C@@H](C)[C@H]1CC[C@H]2[C@@H]3CC=C4C[C@@H](O)CC[C@]4(C)[C@H]3CC[C@]12C` [22R-hydroxycholesterol], the “repression of iNOS activation” value (iNOS gene [1]) is reported as “repress iNOS activation” and the “induction of ABCA1 expression” value (ABCA1 gene) is reported as “induce ABCA1 expression”.
For `C[C@H](CC[C@@H]1OC1(C)C)[C@H]1CC[C@H]2[C@@H]3CC=C4C[C@@H](O)CC[C@]4(C)[C@H]3CC[C@]12C` [24(S), 25-epoxycholesterol], the “repression of iNOS activation” value (iNOS gene [1]) was “repress iNOS activation” and the “induction of ABCA1 expression” value (ABCA1 gene) was “induce ABCA1 expression”.
In the case of `CC(C)C(O)CC[C@@H](C)[C@H]1CC[C@H]2[C@@H]3CC=C4C[C@@H](O)CC[C@]4(C)[C@H]3CC[C@]12C` (stereo partly drawn) [24-hydroxycholesterol], the “repression of iNOS activation” value (iNOS gene [1]) is reported as “repress iNOS activation” and the “induction of ABCA1 expression” value (ABCA1 gene) is reported as “induce ABCA1 expression”.
With `C[C@H](CCCC(C)(C)O)[C@H]1CC[C@H]2[C@@H]3CC=C4C[C@@H](O)CC[C@]4(C)[C@H]3CC[C@]12C` [25 hydroxycholesterol] the “repression of iNOS activation” value (iNOS gene [1]) was “do not repress iNOS activation” and the “induction of ABCA1 expression” value (ABCA1 gene) was “activate ABCA1”.
With `C[C@@H](CO)CCC[C@@H](C)[C@H]1CC[C@H]2[C@@H]3CC=C4C[C@@H](O)CC[C@]4(C)[C@H]3CC[C@]12C` [27-hydroxycholesterol] the “repression of iNOS activation” value (iNOS gene [1]) was “do not repress iNOS activation” and the “induction of ABCA1 expression” value (ABCA1 gene) was “activate ABCA1”.
In the case of `CCCCCCCC1SC(CC(=O)N(Cc2ccccc2)Cc2ccccc2)C(=O)N1CCCCc1ccc(C(=O)O)cc1` (stereo not drawn) [GW0072], the “NCoR and HDAC3 occupancy of iNOS promoter after LPS stimulation” value (iNOS promoter [2]) is listed as “both NCoR and HDAC3 remained on the iNOS promoter”, the “dissociation of NCoR from PPARγ” value (PPARγ) is listed as “effective at dissociating NCoR from PPARγ; also recorded: disrupts direct interactions between NCoR and PPARγ” and the “stimulation of interactions with nuclear receptor coactivators” value (PPARγ) is listed as “only weakly stimulates”.
For `O=C(O)Cc1cccc(OCCCN(Cc2cccc(C(F)(F)F)c2Cl)CC(c2ccccc2)c2ccccc2)c1` [GW3965], the “effect of NCoR-specific siRNA on ligand-dependent repression of LPS-induced iNOS expression” value (iNOS gene [1]; peritoneal macrophages, GW3965 1 μM, LPS 1 mg/ml 6 h (FIG. 10A)) was “abolishes”, the “effect of Ubc9-specific siRNA on ligand-dependent repression of LPS-induced iNOS expression” value (iNOS gene [1]; peritoneal macrophages, GW3965 1 μM, LPS 1 mg/ml 6 h (FIG. 11A)) was “significantly impairs” and the “effect of NCoR-specific siRNA on ligand-dependent repression of iNOS promoter activation” value (iNOS promoter [3]; GW3965 1 μM (FIG. 10B)) was “abolishes”. For the same compound, the “effect of Ubc9-specific siRNA on ligand-dependent repression of iNOS promoter activation” value (iNOS promoter [3]; GW3965 1 µM (FIG. 11B)) was “significantly impairs”, the “LXR recruitment on the iNOS promoter” value (iNOS promoter [4]; GW3965 1 μM, LPS 1 h (FIG. 10C)) was “ligand-dependent and NCoR-dependent LXR recruitment” and the “LPS-stimulated release of NCoR from the iNOS promoter” value (iNOS promoter [4]; peritoneal macrophages, GW3965 1 μM (FIG. 10D)) was “inhibits”.
For `COC(=O)c1ccccc1N[C@@H](Cc1ccc(OCCc2nc(-c3ccccc3)oc2C)cc1)C(=O)O` [GW7845], the “effect on LPS induction of Ccl3, Ccl7, Cxcl10 and Tgtp” value [5] was “repression of the LPS response”.
For `CC(/C=C/C(=O)NO)=C\[C@@H](C)C(=O)c1ccc(N(C)C)cc1` [Trichostatin A], the “effect on rosiglitazone-dependent transrepression of iNOS” value (iNOS gene [6]) was “reversed rosiglitazone-dependent transrepression of iNOS”.
